One data set relates to L02. The data set can be described thus: MTT cytotoxicity assay, L02 normal cells. The format is cell-based. The note with it: Homo sapiens, 72 h cell treatment. On the procedure: (§1) The cells (5 × 10^4 cells/well) were incubated overnight in 96-well plates. A series of solutions containing varying concentrations of inhibitors were added and incubated at 37°C for a period of 72 h. Subsequently, the culture medium was removed, followed by a subsequent incubation of the cells with a 5 mg/mL MTT stock solution for 4 h. After centrifugation, the precipitate was solubilized in DMSO and gently shaken for 15 min. Finally, the absorbance measurement at 570 nm was completed using a microplate reader. Data analysis was performed using GraphPad Prism 6.0 software.

In the next data set the test system is MCF10A. As to the kind of experiment: MTT cytotoxicity assay, MCF10A normal cells. The format is cell-based. To be noted: Homo sapiens, MCF-10A, 72 h cell treatment. On the procedure:
as §1
(Tetrazolium assays rely on reduction of a dye to a coloured formazan, in cell work by metabolically active cells.)

A further data set has as its system Huh-1. As to the kind of experiment: MTT cytotoxicity assay, Huh-1. The format is cell-based. To be noted: Homo sapiens, 72 h cell treatment. As to the method: as §1
Another data set has as its system HepG2 liver cancer cells. As to the kind of experiment: MTT cytotoxicity assay, HepG2. To be noted: Homo sapiens, 72 h cell treatment. The format is cell-based. As to the method:
as §1

The next data set concerns P-histone H3. The data set can be described thus: Gene expression analysis of P-histone H3 in HepG2 cells. The format is cell-based, human. The note with it: 20 h, 0.25, 1 and 5 μM. On the procedure: Total RNA was extracted after the indicated treatments using the RNeasy Mini Kit (cat. no. 74106; QIAGEN, Hilden, Germany) following the manufacturer’s protocol. The concentration of RNA was measured on a plate reader, and then the extracted RNA was converted to cDNA using a High-Capacity RNA-to-cDNA kit from Applied Biosystems (Thermo Fisher Scientific, Inc.). Quantitative real-time polymerase chain reaction was performed in triplicate in a 96-well optical PCR plate using a QuantStudio Real-Time PCR System. Gene expression levels were evaluated using the comparative CT method. Graphical representations of the data were generated by GraphPad Prism 8.
Previous studies indicate that MPS1 inhibitor exerts its antitumor effects by downregulating the levels of phosphorylated histone H3 ([Naud et al., 2013]), while HDAC8 inhibitor achieves its antitumor activity by upregulating lysine residue 62 acetylation (Ace-K62) levels of pyruvate kinase M2 (PKM2) ([Zhang et al., 2020]). The gene expression of P-histone H3 and Ace-K62 was detected in HepG2 cells with the treatment of MPH-5 for 20 h (at the concentration of 0, 0.25, 1, and 5 μM, respectively). […] As the concentration of MPH-5 increases, the inhibitory effect on P-histone H3 and the promotional effect on Ace-K62 become more pronounced.

A short description of data set [1]: In vivo pharmacokinetic study. To be noted: mouse, plasma, ip, BALB/c mice, i.p., 5 mg/kg. On the procedure: MPH-5 was administered intraperitoneally to BALB/c mice at a dose of 5 mg/kg. The blood samples (0.25 mL) were collected at 0.25, 0.5, 1, 2, 4, 8, 16 and 24 h after dosing and centrifuged to obtain the plasma fraction. Plasma samples (50 μL) were transferred into a 96-well plate, followed by the addition of an internal standard solution of methanol/acetonitrile (1:1, v/v) (200 μL). After vortexing for 5 min, the mixture was centrifuged (12,000 rpm for 5 min) to obtain the supernatant (60 μL). A liquid chromatography-tandem mass spectrometry (LC-MS/MS) system was used for the pharmacokinetic study. Data were processed using Phoenix software.

For the next data set, the system named is BEL7402. As to the kind of experiment: MTT cytotoxicity assay, BEL7402. The format is cell-based. To be noted: Homo sapiens, Bel-7402, 72 h cell treatment. As to the method:
as §1

The test system of the next data set is BEAS-2B. As to the kind of experiment: MTT cytotoxicity assay, BEAS-2B normal cells. It counts as cell-based. To be noted: Homo sapiens, 72 h cell treatment. On the procedure: as §1
The next data set has as its system HEK293. The data set can be described thus: MTT cytotoxicity assay, HEK293 normal cells. The note with it: Homo sapiens, 72 h cell treatment. The format is cell-based. As to the method:
as §1

Another data set relates to Li-7. As to the kind of experiment: MTT cytotoxicity assay, Li-7. It counts as cell-based. To be noted: Homo sapiens, 72 h cell treatment. As to the method: as §1
Another data set deals with T1, HDAC2 (Homo sapiens, UniProt Q92769).
T1 construct: ICE Bioscience Inc. (contract assay provider)
T1 sequence (Q92769 whole entry): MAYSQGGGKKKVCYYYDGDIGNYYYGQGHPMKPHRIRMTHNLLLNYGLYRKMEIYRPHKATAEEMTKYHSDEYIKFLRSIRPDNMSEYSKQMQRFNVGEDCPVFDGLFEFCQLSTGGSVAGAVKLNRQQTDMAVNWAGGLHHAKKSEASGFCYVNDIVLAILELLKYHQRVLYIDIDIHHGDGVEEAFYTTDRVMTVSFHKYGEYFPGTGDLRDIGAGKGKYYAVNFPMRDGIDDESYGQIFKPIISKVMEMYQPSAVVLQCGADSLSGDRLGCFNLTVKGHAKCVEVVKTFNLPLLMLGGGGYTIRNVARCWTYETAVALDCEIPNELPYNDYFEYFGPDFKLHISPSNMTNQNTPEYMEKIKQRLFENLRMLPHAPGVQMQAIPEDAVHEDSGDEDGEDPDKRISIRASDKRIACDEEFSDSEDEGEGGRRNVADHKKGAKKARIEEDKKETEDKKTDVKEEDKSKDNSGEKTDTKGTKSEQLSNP
As to the kind of experiment: In vitro selectivity assay. The format is biochemical. To be noted: selectivity panel. On the procedure:
(§2) The inhibitory effects of compound MPH-5 on a panel of 68 kinases and other histone deacetylases were evaluated to assess the selectivity profile of MPH-5. This experiment was conducted by ICE Bioscience Inc. (Beijing, China).

A further data set deals with T2, NTRK2 (Homo sapiens, UniProt Q16620).
T2 construct: ICE Bioscience Inc. (contract assay provider)
T2 sequence (Q16620 32-822): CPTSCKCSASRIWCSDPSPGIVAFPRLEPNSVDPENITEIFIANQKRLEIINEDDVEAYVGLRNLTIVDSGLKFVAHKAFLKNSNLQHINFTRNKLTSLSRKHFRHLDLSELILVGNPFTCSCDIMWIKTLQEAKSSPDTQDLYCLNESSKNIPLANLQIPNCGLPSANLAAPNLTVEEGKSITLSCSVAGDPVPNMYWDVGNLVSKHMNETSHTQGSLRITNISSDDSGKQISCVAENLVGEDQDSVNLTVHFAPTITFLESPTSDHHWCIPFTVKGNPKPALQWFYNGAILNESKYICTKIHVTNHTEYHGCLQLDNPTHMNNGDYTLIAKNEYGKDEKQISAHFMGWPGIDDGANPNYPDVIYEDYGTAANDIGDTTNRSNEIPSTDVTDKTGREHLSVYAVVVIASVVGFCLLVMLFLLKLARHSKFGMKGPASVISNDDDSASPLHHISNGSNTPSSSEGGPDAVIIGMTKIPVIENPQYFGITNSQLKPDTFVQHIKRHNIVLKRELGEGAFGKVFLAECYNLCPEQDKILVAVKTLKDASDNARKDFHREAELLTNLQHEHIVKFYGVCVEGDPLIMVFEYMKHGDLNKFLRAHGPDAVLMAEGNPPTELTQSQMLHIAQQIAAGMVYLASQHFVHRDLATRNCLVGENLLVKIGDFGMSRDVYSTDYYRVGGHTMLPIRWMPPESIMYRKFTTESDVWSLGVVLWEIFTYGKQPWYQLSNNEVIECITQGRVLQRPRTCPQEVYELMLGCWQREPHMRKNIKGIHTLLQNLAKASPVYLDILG
As to the kind of experiment: In vitro selectivity assay. The format is biochemical. The note with it: selectivity panel. As to the method: as §2

The target of a further data set is T3, EPHA4 (Homo sapiens, UniProt P54764).
T3 construct: ICE Bioscience Inc. (assay service)
T3 sequence (P54764 20-986): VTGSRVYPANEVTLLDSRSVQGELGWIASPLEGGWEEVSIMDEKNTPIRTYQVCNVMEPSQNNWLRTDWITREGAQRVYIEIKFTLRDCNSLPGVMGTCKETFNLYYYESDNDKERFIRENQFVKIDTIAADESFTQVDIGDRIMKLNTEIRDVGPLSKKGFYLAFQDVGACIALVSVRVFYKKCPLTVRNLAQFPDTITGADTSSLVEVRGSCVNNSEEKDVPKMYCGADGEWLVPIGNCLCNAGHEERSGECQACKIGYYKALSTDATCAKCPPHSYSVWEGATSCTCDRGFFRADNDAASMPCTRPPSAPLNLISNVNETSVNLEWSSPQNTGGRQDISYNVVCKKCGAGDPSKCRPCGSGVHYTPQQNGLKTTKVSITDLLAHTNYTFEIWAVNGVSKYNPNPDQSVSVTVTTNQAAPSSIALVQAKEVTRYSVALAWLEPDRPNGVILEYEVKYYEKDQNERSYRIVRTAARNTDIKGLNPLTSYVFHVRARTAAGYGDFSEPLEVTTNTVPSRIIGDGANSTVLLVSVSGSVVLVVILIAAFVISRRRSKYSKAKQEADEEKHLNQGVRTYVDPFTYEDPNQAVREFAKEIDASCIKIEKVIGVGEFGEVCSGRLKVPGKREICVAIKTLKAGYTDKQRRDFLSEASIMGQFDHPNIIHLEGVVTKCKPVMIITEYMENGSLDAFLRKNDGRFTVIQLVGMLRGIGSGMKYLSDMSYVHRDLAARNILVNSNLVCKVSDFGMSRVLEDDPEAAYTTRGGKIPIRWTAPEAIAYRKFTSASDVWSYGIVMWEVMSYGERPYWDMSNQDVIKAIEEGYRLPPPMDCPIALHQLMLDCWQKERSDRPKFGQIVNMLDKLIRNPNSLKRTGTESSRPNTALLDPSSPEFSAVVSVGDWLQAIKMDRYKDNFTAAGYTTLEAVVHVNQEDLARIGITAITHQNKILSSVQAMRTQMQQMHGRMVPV
The data set can be described thus: In vitro selectivity assay. The format is biochemical. To be noted: selectivity panel. As to the method: as §2

A further data set concerns the target T4, JAK3 (Homo sapiens, UniProt P52333).
T4 construct: ICE Bioscience Inc. (contract assay provider)
The data set can be described thus: In vitro selectivity assay. It counts as biochemical. To be noted: selectivity panel. On the procedure: as §2

The next data set has as its system HepG2 xenograft tumor. As to the kind of experiment: In vivo antitumor assay, HepG2 xenograft model. To be noted: i.p., 1, 5 and 10 mg/kg. Also noted: species or system BALB/c mice. As to the method: Male BALB/c mice (6 weeks old) were purchased from Changzhou Cavens Experimental Animal Limited Company (Changzhou, China). The xenograft model was established by subcutaneous injection of a suspension of HepG2 human liver cancer cells in PBS (200 μL, 1 × 10^7 cells) into the mice. The mice were randomized into four groups and received intraperitoneal injections of vehicle or MPH-5 at concentrations of 1, 5 and 10 mg/kg. Tumor volume was measured at 3-day intervals and calculated as follows: (c × c × d)/2 (c, the smallest diameter; d, the largest diameter). The experiments involving animals were approved by the Ethics Committee of China Pharmaceutical University.

Data set [2] has as its system panel of 68 kinases and other histone deacetylases. The data set can be described thus: In vitro selectivity assay, whole panel. It counts as biochemical. The note with it: read-out: IC50 on these kinases and other histone deacetylases. As to the method:
as §2

In a further data set the target is T5, HDAC8 (Homo sapiens, UniProt Q9BY41).
T5 construct: purchased Abcam
T5 sequence (Q9BY41 1-377): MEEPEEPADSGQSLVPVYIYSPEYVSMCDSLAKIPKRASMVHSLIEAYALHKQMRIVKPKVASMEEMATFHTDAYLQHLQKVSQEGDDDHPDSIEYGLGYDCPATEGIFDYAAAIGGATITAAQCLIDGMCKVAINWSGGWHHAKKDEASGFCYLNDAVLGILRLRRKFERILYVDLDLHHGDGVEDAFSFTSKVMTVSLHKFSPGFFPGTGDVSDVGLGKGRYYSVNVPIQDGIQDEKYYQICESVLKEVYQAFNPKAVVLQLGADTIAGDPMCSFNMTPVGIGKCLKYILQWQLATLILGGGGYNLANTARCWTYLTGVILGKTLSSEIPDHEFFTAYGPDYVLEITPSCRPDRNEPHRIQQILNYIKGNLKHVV
As to the kind of experiment: In vitro HDAC8 inhibitory assay. The format is biochemical. As to the method:
Inhibition of HDAC8 was determined in 96-well plates. […] The assessment of fluorescence intensity was executed at 390 nm and 460 nm via a microplate reader.

Bounds are passed on as bounds.

T4 sequence (P52333 whole entry): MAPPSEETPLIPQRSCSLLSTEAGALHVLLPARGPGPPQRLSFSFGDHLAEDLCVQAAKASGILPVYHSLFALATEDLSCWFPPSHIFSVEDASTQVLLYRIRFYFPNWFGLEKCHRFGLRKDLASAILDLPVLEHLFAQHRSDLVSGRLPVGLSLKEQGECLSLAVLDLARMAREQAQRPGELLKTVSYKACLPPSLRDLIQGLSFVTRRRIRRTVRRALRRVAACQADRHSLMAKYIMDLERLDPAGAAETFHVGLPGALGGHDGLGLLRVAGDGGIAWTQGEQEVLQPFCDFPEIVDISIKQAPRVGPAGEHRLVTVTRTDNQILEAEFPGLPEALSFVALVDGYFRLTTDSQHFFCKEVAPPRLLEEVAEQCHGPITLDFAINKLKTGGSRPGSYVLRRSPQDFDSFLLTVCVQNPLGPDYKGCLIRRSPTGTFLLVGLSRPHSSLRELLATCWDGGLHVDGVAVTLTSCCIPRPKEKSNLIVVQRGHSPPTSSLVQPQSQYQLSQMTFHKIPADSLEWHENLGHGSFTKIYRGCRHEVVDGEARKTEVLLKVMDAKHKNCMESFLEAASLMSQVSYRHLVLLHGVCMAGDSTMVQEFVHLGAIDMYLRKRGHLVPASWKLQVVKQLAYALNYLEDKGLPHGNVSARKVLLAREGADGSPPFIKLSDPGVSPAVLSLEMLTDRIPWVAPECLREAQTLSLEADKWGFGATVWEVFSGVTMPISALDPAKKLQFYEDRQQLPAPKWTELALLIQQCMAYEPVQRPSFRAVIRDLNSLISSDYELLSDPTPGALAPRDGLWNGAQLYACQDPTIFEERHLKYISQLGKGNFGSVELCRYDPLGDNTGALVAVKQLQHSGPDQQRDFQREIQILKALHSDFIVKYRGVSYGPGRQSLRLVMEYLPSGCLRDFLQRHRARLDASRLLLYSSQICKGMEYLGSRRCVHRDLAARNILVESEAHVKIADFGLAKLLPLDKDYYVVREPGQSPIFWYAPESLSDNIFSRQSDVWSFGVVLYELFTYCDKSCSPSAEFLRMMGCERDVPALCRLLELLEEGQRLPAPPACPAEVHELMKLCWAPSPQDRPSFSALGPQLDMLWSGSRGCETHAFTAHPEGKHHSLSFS

For the compound `Cn1cc(-c2cc3cnc(Nc4ccc(-c5cncn5/C=C/C(=O)NO)cc4Cl)cc3n2C(=O)OC(C)(C)C)cn1` [MPH-5], the half-maximal inhibitory concentration (IC50) (commonly the point on the concentration scale where inhibition reaches its midpoint) is more than 10 µM in the data set on L02; more than 10 µM in the data set with MCF10A; 0.32 µM in the data set with Huh-1; 0.19 µM in the data set on HepG2 liver cancer cells; 0.86 µM in the data set with BEL7402; more than 10 µM with BEAS-2B. For the same compound, the concentration for half-maximal inhibition (IC50) is more than 10 µM with HEK293; 0.64 µM in the data set with Li-7; more than 10 µM against HDAC2; more than 10 µM against NTRK2; more than 10 µM on EPHA4; more than 10 µM against JAK3. In addition, the figures for the IC50 (in data set [2]; against HDAC8 (90 min at 37°C)) were more than 10000 nM and 6.07 ± 0.37 nM, respectively. For the same compound, the “phosphorylated histone H3 levels” value with P-histone H3 is reported as “dose-dependent regulation”. Also, the AUC in [1] (read-out: AUC (h·nmol/L), area under the drug-time curve) was determined as 13800 nmol·h/L. The Cmax in data set [1] (read-out: Cmax (nmol/L), maximum plasma concentration) was 2920 nmol/L. The bioavailability (usually the share of a dose that reaches the circulation, judged against a reference dose that is usually intravenous) in data set [1] (read-out: F (%), bioavailability) was determined as 85%. The half-life in [1] (read-out: T1/2 (h), elimination half-life (converted)) was 3.46 h. Moreover, the body weight change entry in the data set with HepG2 xenograft tumor (HepG2 xenograft mice) was “did not induce any significant body weight change”. Also, in the data set on HepG2 xenograft tumor (HepG2 xenograft, vs vehicle), the “tumor growth (tumor volume)” value is “significantly and dose-dependently inhibited the tumor growth”. In addition, the “HDAC8 IC50 of MPH-5 relative to belinostat” value at HDAC8 (vs belinostat) was “about 4 fold”.

Values taken from PMC11439681, “The identification of potent dual-target monopolar spindle 1 (MPS1) and histone deacetylase 8 (HDAC8) inhibitors through pharmacophore modeling, molecular docking, molecular dynamics simulations, and biological evaluation” (Frontiers in Pharmacology, 2024).
